pIC50: −log10 of the molar value.
Experiments:
BCRP (ABCG2) [1] = target: T1, BCRP (ABCG2) (Homo sapiens, UniProt Q9UNQ0); test: Activity at human BCRP expressed in MDCK2 cells assessed as apical to basolateral mass balance at 3 uM by liquid scintillation counting analysis in presence of 3 uM P-gp and BCRP inhibitor GF120918; format: ADME, cell-based, MDCK-II; conditions: with GF120918 (P-gp and BCRP inhibitor), read-out: Activity
T1 sequence (Q9UNQ0 whole entry): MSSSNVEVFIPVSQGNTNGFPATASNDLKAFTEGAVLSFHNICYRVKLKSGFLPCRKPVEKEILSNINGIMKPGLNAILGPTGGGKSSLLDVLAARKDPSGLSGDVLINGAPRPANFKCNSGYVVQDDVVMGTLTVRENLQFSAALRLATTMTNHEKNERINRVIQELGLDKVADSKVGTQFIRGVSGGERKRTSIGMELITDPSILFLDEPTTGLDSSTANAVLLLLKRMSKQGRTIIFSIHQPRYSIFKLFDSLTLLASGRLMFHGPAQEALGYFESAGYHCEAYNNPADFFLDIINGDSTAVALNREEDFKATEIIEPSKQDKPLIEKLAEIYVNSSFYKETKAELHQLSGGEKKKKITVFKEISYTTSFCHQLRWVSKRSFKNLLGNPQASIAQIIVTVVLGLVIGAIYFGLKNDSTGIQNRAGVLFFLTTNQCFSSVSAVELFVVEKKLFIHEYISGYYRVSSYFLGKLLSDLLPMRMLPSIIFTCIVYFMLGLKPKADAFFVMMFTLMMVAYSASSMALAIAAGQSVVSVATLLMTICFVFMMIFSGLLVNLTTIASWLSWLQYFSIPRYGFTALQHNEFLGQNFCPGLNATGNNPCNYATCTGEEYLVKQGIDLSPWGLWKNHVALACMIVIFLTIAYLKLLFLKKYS

Cytochrome P450 3A4 = Cytochrome P450 3A4 (Homo sapiens, UniProt P08684); test: Drug metabolism in supersomes expressing human recombinant CYP3A4 assessed as NADPH-fortified enzyme-mediated metabolite M3 ((4R,12aS)-N-((3,5-difluorophenyl)(hydroxy)methyl)-7-hydroxy-4-methyl-6,8-dioxo-3,4,6,8,12,12a-hexahydro-2H-[1,3]oxazino[3,2-d]pyrido[1,2-a]pyrazine-9-carboxamide) formation at 5 uM after 120 mins by radio-HPLC analysis in presence of selective CYP3A4 inhibitor azamulin; format: ADME
MDR1 (P-gp, ABCB1) = MDR1 (P-gp, ABCB1) (Homo sapiens, UniProt P08183); test: Activity at human MDR1 expressed in MDCK2 cells assessed as apical to basolateral mass balance at 3 uM by liquid scintillation counting analysis; format: ADME, cell-based, MDCK-II; conditions: MDCK-MDR1, read-out: Activity
Cytochrome P450 1A2 [2] = target: T2, Cytochrome P450 1A2 (Homo sapiens, UniProt P05177); test: Inhibition of CYP1A2 in human liver microsomes using phenacetin as substrate preincubated for 20 mins with substrate prior to initiation of reaction with NADPH by HPLC analysis; format: ADME
T2 sequence (P05177 whole entry): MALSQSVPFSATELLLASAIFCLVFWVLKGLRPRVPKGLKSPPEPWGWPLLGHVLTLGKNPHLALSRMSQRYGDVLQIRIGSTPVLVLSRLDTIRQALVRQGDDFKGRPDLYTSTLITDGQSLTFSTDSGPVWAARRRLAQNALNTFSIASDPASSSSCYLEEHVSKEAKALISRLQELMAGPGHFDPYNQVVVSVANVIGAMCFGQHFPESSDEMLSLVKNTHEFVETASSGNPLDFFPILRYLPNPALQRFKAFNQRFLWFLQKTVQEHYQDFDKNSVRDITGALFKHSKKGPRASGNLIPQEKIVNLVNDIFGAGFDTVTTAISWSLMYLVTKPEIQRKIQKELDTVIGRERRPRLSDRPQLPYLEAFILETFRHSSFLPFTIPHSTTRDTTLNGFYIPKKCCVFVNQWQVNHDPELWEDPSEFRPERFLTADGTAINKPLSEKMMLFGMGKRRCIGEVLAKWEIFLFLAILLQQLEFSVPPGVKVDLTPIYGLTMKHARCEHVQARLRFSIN

Cytochrome P450 2D6 = Cytochrome P450 2D6 (Homo sapiens, UniProt P10635); test: Metabolism-dependent inhibition of CYP2D6 in human liver microsomes using bufuralol as substrate preincubated for 20 mins with NADPH prior to initiation of reaction with probe substrate by HPLC analysis; format: ADME
[3] = target: ATP-dependent translocase ABCB1 (Homo sapiens, UniProt P08183); test: Inhibition of MDR1 (unknown origin) expressed in MDCK2 cells assessed as basolateral to apical transport of [3H]digoxin at 100 uM after 90 mins by liquid scintillation counting analysis; format: ADME, cell-based; conditions: mdck-ii, 1.5 h
[4] = target: T3, UDP-glucuronosyltransferase 1A1 (Homo sapiens, UniProt P22309); test: Drug metabolism assessed as human recombinant UGT1A1-mediated DTG glucuronide M2 ((2S,3S,4S,5R,6S)-6-((4R,12aS)-9-(2,4-difluorobenzylcarbamoyl)-4-methyl-6,8-dioxo-3,4,6,8,12,12a-hexahydro-2H-[1,3]oxazino[3,2-d]pyrido[1,2-a]pyrazin-7-yloxy)-3,4,5-trihydroxytetrahydro-2H-pyran-2-carboxylic acid) formation after 120 mins measured per mg of protein by radio-HPLC analysis; format: ADME; conditions: recombinant enzyme
T3 sequence (P22309 whole entry): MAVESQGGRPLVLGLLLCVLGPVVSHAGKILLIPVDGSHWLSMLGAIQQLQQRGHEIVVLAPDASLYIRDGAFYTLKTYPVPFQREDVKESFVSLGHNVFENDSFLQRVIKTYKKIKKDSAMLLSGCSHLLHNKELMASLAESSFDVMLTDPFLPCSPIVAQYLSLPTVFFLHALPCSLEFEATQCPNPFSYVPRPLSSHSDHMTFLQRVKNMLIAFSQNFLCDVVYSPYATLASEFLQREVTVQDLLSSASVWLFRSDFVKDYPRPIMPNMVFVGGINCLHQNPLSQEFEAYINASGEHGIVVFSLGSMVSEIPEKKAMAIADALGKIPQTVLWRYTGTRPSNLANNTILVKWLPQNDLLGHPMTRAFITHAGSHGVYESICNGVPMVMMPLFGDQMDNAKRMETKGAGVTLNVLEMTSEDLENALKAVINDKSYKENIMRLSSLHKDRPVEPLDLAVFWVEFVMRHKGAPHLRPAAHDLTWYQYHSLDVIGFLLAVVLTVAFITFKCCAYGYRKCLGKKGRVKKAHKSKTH

Cytochrome P450 1A2 [5] = target: T2, Cytochrome P450 1A2; test: Drug metabolism in supersomes expressing human recombinant CYP1A2 assessed as NADPH-fortified enzyme-mediated metabolite formation at 5 uM after 120 mins by radio HPLC analysis; format: ADME; conditions: 2 h
[6] = target: UDP-glucuronosyltransferase 1A9 (Homo sapiens, UniProt O60656); test: Drug metabolism assessed as UDPGA-fortified human recombinant UGT1A9-mediated DTG glucuronide metabolite ((2S,3S,4S,5R,6S)-6-((4R,12aS)-9-(2,4-difluorobenzylcarbamoyl)-4-methyl-6,8-dioxo-3,4,6,8,12,12a-hexahydro-2H-[1,3]oxazino[3,2-d]pyrido[1,2-a]pyrazin-7-yloxy)-3,4,5-trihydroxytetrahydro-2H-pyran-2-carboxylic acid) formation at 16 uM after 120 mins by radio-HPLC analysis; format: ADME; conditions: recombinant enzyme
Cytochrome P450 2A6 = Cytochrome P450 2A6 (Homo sapiens, UniProt P11509); test: Inhibition of CYP2A6 in human liver microsomes using coumarin as substrate preincubated for 20 mins with substrate prior to initiation of reaction with NADPH by HPLC analysis; format: ADME
BCRP (ABCG2) [7] = target: T1, BCRP (ABCG2); test: Activity at human BCRP expressed in MDCK2 cells assessed as apical to basolateral mass balance at 3 uM by liquid scintillation counting analysis; format: ADME, cell-based, MDCK-II; conditions: read-out: Activity
Liver microsome = test: Drug metabolism in NADPH-fortified human liver microsomes assessed as metabolite M3 ((4R,12aS)-N-((3,5-difluorophenyl)(hydroxy)methyl)-7-hydroxy-4-methyl-6,8-dioxo-3,4,6,8,12,12a-hexahydro-2H-[1,3]oxazino[3,2-d]pyrido[1,2-a]pyrazine-9-carboxamide) formation at 5 uM after 120 mins treated 5 mins after selective CYP3A4 inhibitor azamulin addition by radio-HPLC analysis; format: ADME

Chain of MDR1 (P-gp, ABCB1) (P08183 whole entry): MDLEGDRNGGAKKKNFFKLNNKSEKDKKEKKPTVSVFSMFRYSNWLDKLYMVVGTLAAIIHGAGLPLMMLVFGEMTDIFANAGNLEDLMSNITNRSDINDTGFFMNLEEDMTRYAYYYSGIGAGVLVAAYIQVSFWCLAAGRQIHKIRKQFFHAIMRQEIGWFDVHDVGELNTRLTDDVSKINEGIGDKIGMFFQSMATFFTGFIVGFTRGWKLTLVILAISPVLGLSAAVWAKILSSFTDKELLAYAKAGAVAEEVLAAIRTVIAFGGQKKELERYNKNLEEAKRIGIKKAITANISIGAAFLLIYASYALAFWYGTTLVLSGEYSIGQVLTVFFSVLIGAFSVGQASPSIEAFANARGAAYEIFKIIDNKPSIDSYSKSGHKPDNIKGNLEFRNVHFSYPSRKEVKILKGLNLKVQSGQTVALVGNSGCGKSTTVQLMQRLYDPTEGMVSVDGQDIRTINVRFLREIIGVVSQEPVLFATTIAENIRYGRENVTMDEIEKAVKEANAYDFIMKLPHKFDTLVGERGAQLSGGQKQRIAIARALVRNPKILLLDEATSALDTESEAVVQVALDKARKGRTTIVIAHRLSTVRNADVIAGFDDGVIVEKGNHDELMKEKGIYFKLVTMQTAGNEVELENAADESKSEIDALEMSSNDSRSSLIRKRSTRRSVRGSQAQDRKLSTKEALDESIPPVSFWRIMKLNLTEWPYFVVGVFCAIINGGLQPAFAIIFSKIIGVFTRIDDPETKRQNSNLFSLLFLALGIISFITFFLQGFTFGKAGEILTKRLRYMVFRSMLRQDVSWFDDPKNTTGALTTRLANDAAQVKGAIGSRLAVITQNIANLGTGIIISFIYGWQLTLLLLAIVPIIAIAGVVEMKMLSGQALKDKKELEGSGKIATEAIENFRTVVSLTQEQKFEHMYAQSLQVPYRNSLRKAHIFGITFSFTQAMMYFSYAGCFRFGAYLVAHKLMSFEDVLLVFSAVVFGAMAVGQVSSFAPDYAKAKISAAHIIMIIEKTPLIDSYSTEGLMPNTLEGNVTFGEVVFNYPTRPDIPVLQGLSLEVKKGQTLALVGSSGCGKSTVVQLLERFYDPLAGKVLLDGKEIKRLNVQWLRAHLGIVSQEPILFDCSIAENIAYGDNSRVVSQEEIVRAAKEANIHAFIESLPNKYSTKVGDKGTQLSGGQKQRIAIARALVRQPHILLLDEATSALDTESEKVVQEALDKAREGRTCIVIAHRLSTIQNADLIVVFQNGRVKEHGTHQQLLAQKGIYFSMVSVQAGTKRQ
Chain of ATP-dependent translocase ABCB1 (P08183 whole entry): as above
Chain of Cytochrome P450 2A6 (P11509 whole entry): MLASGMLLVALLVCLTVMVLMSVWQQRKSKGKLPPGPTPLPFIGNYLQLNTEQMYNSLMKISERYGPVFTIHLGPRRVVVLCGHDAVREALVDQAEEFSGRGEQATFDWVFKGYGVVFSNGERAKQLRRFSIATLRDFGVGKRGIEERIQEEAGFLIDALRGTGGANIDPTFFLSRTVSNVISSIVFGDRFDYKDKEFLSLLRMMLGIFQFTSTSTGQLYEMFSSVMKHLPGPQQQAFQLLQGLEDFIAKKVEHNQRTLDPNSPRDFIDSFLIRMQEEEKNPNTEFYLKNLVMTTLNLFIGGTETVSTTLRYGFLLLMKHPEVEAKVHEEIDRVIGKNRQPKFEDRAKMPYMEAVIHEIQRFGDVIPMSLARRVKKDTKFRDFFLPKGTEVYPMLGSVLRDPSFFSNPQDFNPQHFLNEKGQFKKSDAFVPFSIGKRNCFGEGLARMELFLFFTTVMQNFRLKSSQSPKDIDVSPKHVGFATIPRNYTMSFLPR
Chain of Cytochrome P450 3A4 (P08684 whole entry): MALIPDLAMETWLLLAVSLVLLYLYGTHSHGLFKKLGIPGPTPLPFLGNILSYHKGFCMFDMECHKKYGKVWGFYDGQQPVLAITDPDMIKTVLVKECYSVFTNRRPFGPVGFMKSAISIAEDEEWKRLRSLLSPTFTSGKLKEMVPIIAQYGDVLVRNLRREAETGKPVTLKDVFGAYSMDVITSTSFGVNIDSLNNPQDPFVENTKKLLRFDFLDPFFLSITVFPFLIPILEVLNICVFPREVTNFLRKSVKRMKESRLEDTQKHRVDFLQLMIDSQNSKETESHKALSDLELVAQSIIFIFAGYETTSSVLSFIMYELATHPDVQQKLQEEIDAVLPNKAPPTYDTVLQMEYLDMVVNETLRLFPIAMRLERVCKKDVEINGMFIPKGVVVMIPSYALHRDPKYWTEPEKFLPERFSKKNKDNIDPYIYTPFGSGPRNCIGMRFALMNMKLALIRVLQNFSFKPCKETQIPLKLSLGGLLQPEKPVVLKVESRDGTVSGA
Chain of Cytochrome P450 2D6 (P10635 whole entry): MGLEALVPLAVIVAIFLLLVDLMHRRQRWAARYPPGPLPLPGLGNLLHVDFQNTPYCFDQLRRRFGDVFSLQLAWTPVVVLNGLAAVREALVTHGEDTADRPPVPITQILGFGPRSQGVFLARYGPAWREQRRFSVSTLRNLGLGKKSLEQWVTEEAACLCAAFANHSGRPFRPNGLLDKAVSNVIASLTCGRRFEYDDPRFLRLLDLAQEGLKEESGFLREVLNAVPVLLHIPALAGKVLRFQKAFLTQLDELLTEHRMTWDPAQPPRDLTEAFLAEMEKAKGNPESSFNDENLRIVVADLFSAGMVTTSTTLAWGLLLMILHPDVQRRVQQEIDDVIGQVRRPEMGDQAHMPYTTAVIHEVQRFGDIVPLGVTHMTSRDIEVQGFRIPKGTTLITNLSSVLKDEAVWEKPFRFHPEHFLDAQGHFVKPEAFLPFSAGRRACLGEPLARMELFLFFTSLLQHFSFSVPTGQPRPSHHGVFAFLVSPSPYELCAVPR
Chain of UDP-glucuronosyltransferase 1A9 (O60656 whole entry): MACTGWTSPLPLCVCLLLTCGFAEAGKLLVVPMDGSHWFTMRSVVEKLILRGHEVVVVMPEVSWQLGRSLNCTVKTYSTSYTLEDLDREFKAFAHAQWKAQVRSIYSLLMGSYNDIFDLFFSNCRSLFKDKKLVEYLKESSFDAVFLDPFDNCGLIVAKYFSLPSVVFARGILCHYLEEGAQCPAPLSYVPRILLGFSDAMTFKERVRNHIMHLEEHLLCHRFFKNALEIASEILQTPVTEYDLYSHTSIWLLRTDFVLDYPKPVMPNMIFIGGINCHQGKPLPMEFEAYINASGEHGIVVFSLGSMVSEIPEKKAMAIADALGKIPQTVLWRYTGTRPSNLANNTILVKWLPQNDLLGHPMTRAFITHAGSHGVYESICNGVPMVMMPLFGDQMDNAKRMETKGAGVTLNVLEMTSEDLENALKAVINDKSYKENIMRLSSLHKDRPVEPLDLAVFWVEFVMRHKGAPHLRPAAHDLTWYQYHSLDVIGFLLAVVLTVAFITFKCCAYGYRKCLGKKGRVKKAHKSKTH

SMILES: C[C@@H]1CCO[C@H]2Cn3cc(C(=O)NCc4ccc(F)cc4F)c(=O)c(O)c3C(=O)N12 [DOLUTEGRAVIR]
- recovery at 3 µM (BCRP (ABCG2) [1]): 81%
- Drug metabolism (Cytochrome P450 3A4): metabolite_not_detected
- recovery at 3 µM (MDR1 (P-gp, ABCB1)): 84%
- pIC50 (Cytochrome P450 1A2 [2]): < 4.00
- pIC50 (Cytochrome P450 2D6): < 4.00
- inhibition (INH) [3]: 29%
- Vmax [4]: 67 pmol/min
- Drug metabolism (Cytochrome P450 1A2 [5]): metabolite_not_detected
- Drug metabolism [6]: metabolite_detected
- pIC50 (Cytochrome P450 2A6): < 4.00
- recovery at 3 µM (BCRP (ABCG2) [7]): 81%
- Drug metabolism (Liver microsome): metabolite_not_detected

From ChEMBL document CHEMBL3526034 (Drug Metab Dispos, 2013)
